Assay results reported in US8552015B2, “Quinazolinone derivatives and their use as CB agonists” (Novartis AG, priority 2002, dated 2013).
Where a name gives a salt, the structure may show the parent alone.

Legend:
human CB2 receptors = molecular target: T1, human CB2 receptors (Homo sapiens, UniProt P34972); test: Test II: CB2 receptor binding assay ([3H]CP55940 displacement); conditions: membranes from CHOK1 cells, Ki from IC50 by Cheng-Prussoff
T1 construct: purchased Receptor Biology, Beltsville, Md; host or cells: CHOK1 cells (transfected), membrane preparation
Experimental: (§1) The assay mixture comprises 75 μL of membrane suspension [membranes from CHOK1 cells transfected with human CB2 receptors from Receptor Biology, Beltsville, Md.; 133 μg/mL in assay buffer (50 mM Tris-HCl, 2.5 mM EDTA, 5 mM MgCl2 5 mg/mL BSA, pH7.4), approx, 10 μg/well)], 25 μL WGA-YS beads [Yttrium silicate beads coated with wheat germ agglutinin, Amersham (40 mg/mL, 1 mg/well)), 50 μL test compound in 4% DMSO and 50 μL radioligand {[^3H]CP55940 (180 Ci/mmol), New England Nuclear; final concentration 0.125 nM, in assay buffer}. All components are mixed, shaken at room temperature for 2 hours, then counted on a Topcount. Non-saturable binding is measured in the presence of 10 μM (R)-(+)-[2,3-d]hydro-5-methyl-3-[(4-morpholinyl)methyl]pyrrolo[1,2,3-de]-1,4-benzoxazin-6-yl](1-naphthalenyl)methanone (WIN55,212-2, Tocris).
The IC50 values are calculated in ORIGIN using a logistic fit. Ki values are calculated from the IC50 values using the Cheng-Prussoff equation (Ki=IC50/(1+([L]/Kd)) where [L] is the ligand concentration.

[1] = system: neuropathic pain induced by partial ligation of the sciatic nerve; test: Test III: Neuropathic pain model (partial ligation of the sciatic nerve, mechanical hyperalgesia); assay type: in vivo, Wistar-rats; conditions: p.o.; dose necessary to produce 50% reversal of hyperalgesia
Description: Activity specifically as analgesic agents may be confirmed in accordance with standard test methods, e.g. as described in the following test. • Test III: Neuropathic Pain Model
Hyperalgesia is examined in the model of neuropathic pain induced by partial ligation of the sciatic nerve as described by Seltzer et al. (1990). Briefly, Wistar-rats (120-140 g) are anaesthetised, the left sciatic nerve exposed at mid-thigh level through a small incision and ⅓ to ½ of the nerve thickness tightly ligated within a 7.0 silk suture. The wound is closed with a single muscle suture and skin clips and dusted with Aureomycin antibiotic powder. The animals are allowed to recover and used 12-15 days following surgery.
Mechanical hyperalgesia is assessed by measuring paw withdrawal thresholds to an increasing pressure stimulus placed onto the dorsal surface of the paw using an analgesymeter (Ugo-Basile, Milan) with a cut-off of 250 g. Withdrawal thresholds are measured on both the ipsilateral (ligated) and contralateral (unligated) paw prior to (predose) and then up to 6 h following drug or vehicle administration. Data are expressed as withdrawal threshold (g) and percentage reversal of hyperalgesia calculated according to the following formula:
[formula] • Potency is expressed as D50 value, i.e. the dose of compound necessary to produce 50% reversal of hyperalgesia.

hCB1 receptor [2] = molecular target: T2, hCB1 receptor (Homo sapiens, UniProt P21554); test: Test IV: CB1 functional assay ([35S]GTPγS binding); assay type: biochemical; design: purchased Receptor Biology Inc RBhCB1 382200; host or cells: HEK293 cells, membrane preparation; conditions: hCB1 receptor membrane (HEK293 cells)
Experimental: G-protein activation is used as a functional measure of receptor-ligand association for G-protein coupled receptors. The basic mechanism behind G-protein activation is the exchange of bound guanosine 5′-diphosphate (GDP) for guanosine 5′-triphosphate (GTP). Using a radioactive, non-hydrolyzable form of GTP, such as guanosine 5′-O-(3-[^35S]thiophosphate ([^35S]GTPγS), G-protein activation is assessed by measuring the accumulation of membrane-bound radioactivity in response to receptor activation.
The plate is sealed with a topseal A cover and vortexed for 2 minutes. The plate is incubated at room temperature for 60 min., centrifuged (Beckman 6JB) at 800 g for 5 minutes and counted on a Topcount for 3 minutes.
Non-specific binding is determined using 10 μM GTPγS, and this is subtracted from all values. Basal binding is assayed in the absence of agonist and in the presence of GDP. The stimulation by agonist is defined as a percentage increase above basal levels, i.e., {[cpm(agonist)−cpm(no agonist)]/cpm(no agonist)}×100
Data are reported as mean ±S.E.M. of one to six experiments performed in triplicate. Non-linear regression analysis of concentration-response data is performed using Origin version 5, (logistics algorithm; Microcal Software Inc. MA, USA) to calculate percentage maximal effect (Emax, %) and EC50 (nM) values. […]

hCB1 receptor [3] = molecular target: T2, hCB1 receptor; test: Test I: CB1 receptor binding assay ([3H]CP55940 displacement); design: purchased Receptor Biology, Beltsville, Md; host or cells: HEK293 cells (transfected), membrane preparation; conditions: membranes from HEK293 cells, Ki from IC50 by Cheng-Prussoff
Experimental: More particularly the agents of the invention are active at the human CB1 and CB2 receptor.
as §1, with “HEK293” for “CHOK1”, “CB1” for “CB2”, “mg/well)],” for “mg/well)),”, “(R)-(+)-[2,3-dihydro-5-methyl-3-[(4-morpholinyl)methyl]pyrrolo[1,2,3-de]-1,4-benzoxazin-6-yl](1-naphthalenyl)methanone” for “(R)-(+)-[2,3-d]hydro-5-methyl-3-[(4-morpholinyl)methyl]pyrrolo[1,2,3-de]-1,4-benzoxazin-6-yl](1-naphthalenyl)methanone”
The IC50 values are calculated in ORIGIN using a logistic fit. Ki values are calculated from the IC50 values using the Cheng-Prussoff equation (Ki=IC50/(1+([L]/Kd)) where [L] is the ligand concentration. • Test II: CB2 Receptor Binding Assay

T2 sequence (P21554 whole entry): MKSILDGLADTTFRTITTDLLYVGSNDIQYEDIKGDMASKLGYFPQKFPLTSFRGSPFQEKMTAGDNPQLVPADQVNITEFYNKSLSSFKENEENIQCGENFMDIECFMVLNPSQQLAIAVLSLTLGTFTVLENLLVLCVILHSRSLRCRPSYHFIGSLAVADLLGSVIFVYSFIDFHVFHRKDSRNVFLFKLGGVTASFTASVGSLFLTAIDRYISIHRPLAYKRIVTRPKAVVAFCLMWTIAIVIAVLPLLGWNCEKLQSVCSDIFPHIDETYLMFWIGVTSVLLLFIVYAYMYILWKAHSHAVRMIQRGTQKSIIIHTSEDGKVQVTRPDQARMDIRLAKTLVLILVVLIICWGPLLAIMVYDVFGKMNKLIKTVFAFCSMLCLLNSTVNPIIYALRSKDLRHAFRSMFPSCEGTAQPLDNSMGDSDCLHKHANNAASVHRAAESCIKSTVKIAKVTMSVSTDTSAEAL
T1 sequence (P34972 whole entry): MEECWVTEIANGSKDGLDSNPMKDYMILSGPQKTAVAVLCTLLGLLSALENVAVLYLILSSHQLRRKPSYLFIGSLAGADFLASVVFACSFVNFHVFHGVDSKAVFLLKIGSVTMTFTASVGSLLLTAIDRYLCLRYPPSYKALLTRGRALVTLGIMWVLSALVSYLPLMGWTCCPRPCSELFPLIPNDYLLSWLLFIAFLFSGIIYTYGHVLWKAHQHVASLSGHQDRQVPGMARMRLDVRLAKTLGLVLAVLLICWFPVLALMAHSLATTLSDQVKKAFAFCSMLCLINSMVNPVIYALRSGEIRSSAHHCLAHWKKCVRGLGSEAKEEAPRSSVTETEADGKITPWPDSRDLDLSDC

melting point [°C]	Compound	Ki (human CB2 receptors) [nM]	D50 value in the neuropathic pain model of test III [1] [mg/kg]	EC50 (hCB1 receptor [2]) [nM]	Ki (hCB1 receptor [3]) [nM]
	CCOC(=O)c1c(C)cc2nc(COC(=O)NCCO)n(-c3ccccc3S(=O)(=O)NC)c(=O)c2c1C [Example 2, 2-(2-Hydroxy-ethylcarbamoyloxymethyl)-5,7-dimethyl-3-(2-methylsulfamoyl-phenyl)-4-oxo-3,4-dihydro-quinazoline-6-carboxylic acid ethyl ester]	11 ± 3.5	0.5	132 ± 19	34 ± 3
126 to 130	CCNC(=O)OCc1nc2cc(C)c(C(=O)OCC)c(C)c2c(=O)n1-c1ccccc1S(=O)(=O)NC (as salt: hydrochloride)				
